Data reported in publication PMC11417994, “Cyclohexanediamine Triazole (CHDT) Functionalization Enables Labeling of Target Molecules with Al^18F/^68Ga/^111In” (Bioconjugate Chemistry, 2024).
“And” between values parts separate entries of the source, which are not always exact repeats. Equal entries are not always repeated.

Columns and labels:
[1] = n-Octanol/PBS distribution coefficient (logD7.4); type: physicochemical; conditions: Table S1 individual values
Protocol: The log D7.4 values were determined as follows: 500 μL of n-octanol and 450 μL of PBS (pH 7.4) were premixed prior to the addition of 50 μL of the respective radiolabeled compound. The mixture was vigorously stirred for 30 min at 22 °C, and thereafter centrifuged for 5 min at 7,500g at 22 °C. Aliquots of the n-octanol and the aqueous phases were transferred to measuring tubes, and the activity counts in both phases were measured in a gamma counter (Hidex Deutschland Vertrieb GmbH, Germany). The logarithm of the quotient of the activity counts from the n-octanol and the aqueous phase was calculated, which is equal to the log D7.4 value.

[2] = Serum stability assay in human serum (radio-TLC/radio-HPLC); type: in vitro ADME; conditions: 37 °C, radio-TLC; for Percentage of intact radioligand after 3 h in human serum: Table 1 mean ± SEM, Table S1 individual values
Protocol: To investigate the serum stability of the radiolabeled CHDTA-PSMA-1/2/3, human serum (frozen, from male AB clotted whole blood; Sigma-Aldrich/Merck) was centrifuged for 5 min at 20,000g at 4 °C after thawing. The supernatant was sterile filtrated (filter pore 0.2 μm). Four parts serum and one part of radioligand were incubated at 37 °C with shaking. Aliquots were taken after 3 h and for the ^111In-labeled compounds also after 24 and 48 h, and residual intact radiolabeled compound was determined by radio-TLC and/or radio-HPLC. For analysis by radio-HPLC, the aliquots were mixed with Supersol (mixture for protein precipitation that consists of 20% ethanol, 0.5% Triton X-100, 5 mM EDTA and 0.1% saponin)[72] and kept on ice for 5 min. After centrifugation for 5 min at 20,000g at 4 °C, the supernatant was used for radio-HPLC analysis.

[3] = target: T1, PSMA (Homo sapiens, UniProt Q04609); assay: Competition binding assay, LNCaP cell homogenates, radioligand [177Lu]Lu-PSMA-617; conditions: nonlabeled compounds; [177Lu]Lu-PSMA-617 12 nM; 37 °C, 60 min; Table 2 mean (SEM), Table S3 individual experiments and mean
T1 construct: Detection of endogenous PSMA expression in LNCaP and PC3 cells relative to β-actin expression by Western; host or cells: LNCaP human prostate carcinoma cells (monolayer, spheroids or Potter-Elvehjem homogenates)
Protocol: The binding affinity of the nonlabeled CHDT-PSMA-1/2/3, PSMA-1007, PSMA-617, and KuE was assessed in competition binding assays using LNCaP cell homogenates (∼1 × 10^6 cells/mL using Potter-Elvehjem) and the radioligand [^177Lu]Lu-PSMA-617 (n = 5 for CHDT-PSMA-1; n = 4 for CHDT-PSMA-2/3; n = 2 for PSMA-1007; n = 8 for PSMA-617; n = 6 for KuE). […] The assays were performed in a final volume of 200 μL. The incubation was stopped by washing the homogenate with cold PBS four times using a filter (Whatman GF/C, 90 min presoaked in 0.3% polyethylenimine) in a cell harvester (Brandel, USA). The radioactivity bound to the filter was measured in a gamma counter. Filter binding was determined for adjacent samples without cell homogenate. The experiments were performed two to four times in triplicates or quadruplicates. Inhibitory constants (Ki) were derived from nonlinear regression according to the model of “One site – Fit Ki” as implemented in GraphPad Prism 10. The Kd value of [^177Lu]Lu-PSMA-617 was determined in saturation binding assays using LNCaP cell homogenates to be 15.2 (±2.1) nM.

[4] = target: T1, PSMA; assay: Saturation binding (surface-bound and internalized), intact LNCaP cells as monolayer
Excerpt: (§1) In addition to assessing the binding affinities for nonlabeled CHDT-PSMA-1/2/3, we sought to characterize the saturation binding of the Al^18F-, ^68Ga-, and ^111In-labeled compounds using LNCaP cells cultured in monolayers and as spheroids. The saturation binding curves for Al[^18F]F-CHDT-PSMA-1/2/3 are depicted in Figure 3, while the graphs for [^18F]PSMA-1007 and ^68Ga- and ^111In-labeled CHDT-PSMA-1/2/3 can be found in Figures S7–S9 in the Supporting Information. The binding parameters (Kd and Bmax) for Al[^18F]F-CHDT-PSMA-1/2/3 and [^18F]PSMA-1007 are summarized in Table 3 (for the ^68Ga- and ^111In-labeled compounds see Tables S4 and S5 in the Supporting Information). For the saturation binding assays, we recorded surface-bound radioligand (named “binding”), which refers to bound radioligand that can be removed by acid wash, and internalized or acid-resistant radioligand (named “internalization”), which refers to radioligand that remains cell-bound after acid wash. Consequently, two saturation binding plots were obtained and two sets of binding parameters (Kd/Bmax and Kd,int/Bmax,int) were derived.
(§2) For saturation assays in well plates, monolayers of LNCaP (sowing 5 × 10^4 cells/well in 48-well plates 2 days before the assay), as well as LNCaP spheroids were incubated with radiolabeled CHDT-PSMA-1/2/3 and PSMA-1007 (0.2 nM to 100 nM) with adjacent samples receiving KuE (0.8 mM) at 37 °C for 2 h. The number of experiments can be derived from the data in the Tables S4, S5, and S7 in the Supporting Information. After removing the incubation medium and washing of cells with ice-cold PBS (containing Mg^2+ and Ca^2+) the surface-bound activity was stripped with 4 °C cold acid-wash buffer (0.2 M glycine, 0.15 M NaCl, pH 3.0) for 10 min. The acid wash buffer was transferred from the wells to measuring tubes, as was the PBS buffer after washing once. Cytosolic activity (internalized radioligand) was determined after treatment with cell lysis buffer (1% SDS in 0.1 M NaOH) at 37 °C for 30 min. Cell surface and cytosolic activity were measured separately in a gamma counter. Time-depending internalization assays were performed only with cells in monolayer. The incubation (radioligand concentration 13 nM) for these assays was terminated after 10 min, 1 and 3 h, with ^111In and ^177Lu additionally after 24 and 48 h at 37 °C, respectively. During the internalization assays adjacent samples received KuE (0.8 mM) for PSMA blocking, methyl-β-cyclodextrin (MβCD; 3 mM) or KuE together with MβCD, 1 h before radioligand application. The number of experiments can be derived from the data of Figure S11 and associated table and from Table S8 in the Supporting Information.
(§3) Dissociations constants (Kd and Kd,int), as well as maximal binding capacities (Bmax and Bmax,int), were derived from specific binding data by nonlinear regression according to the model of “One site-specific binding” as implemented in GraphPad Prism 10. Protein content was determined using the bicinchoninic acid protein assay kit (Pierce, Thermo Scientific) to calculate the binding capacities in pmol/mg and for the time-depending internalization the internalized percent of administrated dose per μg protein (% AD/μg protein).

[5] = target: T1, PSMA; assay: Saturation binding (surface-bound and internalized), LNCaP spheroids
Excerpt: as §1
For the formation of spheroids, the LNCaP cells were incubated overnight in a normal culture bottle with biocompatible nanoparticles ([…] with 80 μL of a suspension consisting of Au, Fe2O3 and poly-L-lysine called Nanoshuttle, Greiner Bio-One GmbH, Germany). After harvesting and cell counting, 10,000 cells/well of a 24-well plate or 7,000 cells/well of a 96-well plate (cell-repellent plates) were sown. The well plates were placed on matching plates with button magnets (Greiner Bio-One GmbH, Germany). The magnetized LNCaP cells formed suitable spheroids that were used after 5 d.
as §2, §3

[6] = same conditions; cited from earlier work
[7] = pH 7.4, radiolabel Al^18F, Table 1 mean ± SEM of three experiments
[8] = pH 7.4, radiolabel ^68Ga, Table 1 mean ± SEM
[9] = pH 7.4, radiolabel ^111In, Table 1 mean ± SEM
[10] = Al^18F-labeled conjugate or [18F]PSMA-1007, acid-resistant fraction, read-out: Kd,int (internalization)
[11] = Al^18F-labeled conjugate or [18F]PSMA-1007, surface-bound
[12] = Al^18F-labeled conjugate or [18F]PSMA-1007, surface-bound, 37 °C, 2 h, read-out: Kd (binding)
[13] = Al^18F-labeled conjugate or [18F]PSMA-1007, surface-bound, read-out: Kd (binding)
[14] = [111In]In-labeled conjugate, surface-bound

T1 sequence (Q04609 whole entry): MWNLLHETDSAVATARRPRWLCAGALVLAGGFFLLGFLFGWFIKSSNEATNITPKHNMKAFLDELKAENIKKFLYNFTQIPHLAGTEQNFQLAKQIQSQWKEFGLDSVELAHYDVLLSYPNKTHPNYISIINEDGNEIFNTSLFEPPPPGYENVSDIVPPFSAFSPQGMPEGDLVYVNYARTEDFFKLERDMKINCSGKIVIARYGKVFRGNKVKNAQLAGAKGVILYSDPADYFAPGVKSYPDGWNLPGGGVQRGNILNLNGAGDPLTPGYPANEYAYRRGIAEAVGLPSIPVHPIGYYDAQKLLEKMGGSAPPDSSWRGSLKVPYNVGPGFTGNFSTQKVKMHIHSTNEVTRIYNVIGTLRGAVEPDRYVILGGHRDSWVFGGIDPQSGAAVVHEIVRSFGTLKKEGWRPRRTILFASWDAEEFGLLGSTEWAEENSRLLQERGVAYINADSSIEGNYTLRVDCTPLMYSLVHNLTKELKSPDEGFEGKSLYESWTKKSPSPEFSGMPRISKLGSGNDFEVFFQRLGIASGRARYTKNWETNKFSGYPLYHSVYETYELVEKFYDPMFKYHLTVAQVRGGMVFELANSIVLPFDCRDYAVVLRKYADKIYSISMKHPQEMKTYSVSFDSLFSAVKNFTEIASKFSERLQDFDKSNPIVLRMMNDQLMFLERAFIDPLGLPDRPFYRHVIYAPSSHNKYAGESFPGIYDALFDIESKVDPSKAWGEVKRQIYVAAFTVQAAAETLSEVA

Row | logD [1, 7] | logD [1, 8] | logD [1, 9] | Percentage of intact radioligand after 3 h in human serum ([2]; radiolabel Al^18F) | Percentage of intact radioligand in human serum after 24 h (*) ([2]; radiolabel ^111In) | Ki [3] | Kd [4, 10] [nM] | Bmax (binding) [4, 11] [pmol/mg] | Kd [4, 12] [nM] | Kd [5, 10] [nM] | Bmax (binding) [5, 11] [pmol/mg] | Kd [5, 13] [nM] | SMILES | Percentage of intact radioligand after 3 h in human serum ([2]; radiolabel ^68Ga) | Percentage of intact radioligand after 3 h in human serum ([2]; radiolabel ^111In, 3 h) | Percentage of intact radioligand in human serum after 48 h (**) ([2]; radiolabel ^111In) | Bmax,int (internalization) ([5]; [111In]In-labeled conjugate) | Bmax,int (internalization) ([4]; [111In]In-labeled conjugate) | Bmax (binding) [5, 14] | also measured
1 | -3.43 | -3.09 | -3.87 | 99.2% and 99.6% and 99.3 ± 0.1% | 98.9% and 99.6% and 99.1 ± 0.2% | 7.65 nM and 3.21 nM and 9.15 nM and 12.6 nM and 8.1 nM | 14.4 ± 7.3 | 2.18 ± 0.97 | 19.7 ± 8.4 | 36.4 ± 14.6 |  | 38.6 ± 25.8 | O=C(O)CCC(NC(=O)NC(CCCCNC(=O)[C@H](Cc1ccc2ccccc2c1)NC(=O)[C@H]1CC[C@H](CNC(=O)CCCCn2cc(CN(CC(=O)O)[C@@H]3CCCC[C@H]3N(CC(=O)O)CC(=O)O)nn2)CC1)C(=O)O)C(=O)O (mixture of isomers) [CHDT-PSMA-3] | 98.6% and 99.6% and 99.3% and 99.1 ± 0.4% | 99.5% and 98.8% and 99.2% and 99.2 ± 0.2% | 99.9% and 99.5% and 98.7% and 99.4 ± 0.4% | 0.31 pmol/mg and 0.33 pmol/mg and 0.32 pmol/mg | 0.65 pmol/mg and 0.49 pmol/mg and 0.57 pmol/mg | 0.21 pmol/mg and 0.40 pmol/mg and 0.30 pmol/mg | Bmax (binding) [4, 14]: 0.50 pmol/mg and 0.91 pmol/mg and 0.70 pmol/mg; Bmax,int (internalization) ([5]; [68Ga]Ga-labeled conjugate, only one assay): 0.75 pmol/mg
2 |  |  |  |  |  |  |  |  |  |  |  |  | O=C(O)CN1CCN(CC(=O)O)CCN(CC(=O)O)CCN(CC(=O)O)CC1 [DOTA] |  |  |  |  |  |  | 64Cu-transchelation in human serum [6]: only minimal

Row | SMILES | logD [1, 7] | logD [1, 8] | logD [1, 9] | Percentage of intact radioligand after 3 h in human serum ([2]; radiolabel Al^18F) | Percentage of intact radioligand in human serum after 24 h (*) ([2]; radiolabel ^111In) | Ki [3] | Kd [4, 10] [nM] | Bmax (binding) [4, 11] [pmol/mg] | Kd [4, 12] [nM] | Kd [5, 10] [nM] | Bmax (binding) [5, 11] [pmol/mg] | Kd [5, 13] [nM] | Percentage of intact radioligand after 3 h in human serum ([2]; radiolabel ^68Ga) | Percentage of intact radioligand after 3 h in human serum ([2]; radiolabel ^111In, 3 h) | Percentage of intact radioligand in human serum after 48 h (**) ([2]; radiolabel ^111In) | Bmax,int (internalization) ([5]; [111In]In-labeled conjugate) | Bmax,int (internalization) ([4]; [111In]In-labeled conjugate) | Bmax (binding) [5, 14] | also measured
3 | O=C(O)CCC(NC(=O)NC(CCCCNC(=O)Cn1cc(CN(CC(=O)O)[C@@H]2CCCC[C@H]2N(CC(=O)O)CC(=O)O)nn1)C(=O)O)C(=O)O (mixture of isomers) [CHDT-PSMA-1] | -3.6 | -3.36 | -4.23 | 98.9% and 99.0% and 98.8% and 98.9 ± 0.1% | 99.8% and 99.5% and 99.6 ± 0.1% | 85.5 nM and 120 nM and 86.9 nM and 152 nM and 132 nM and 115 nM | 18.4 ± 7.3 | 1.87 ± 0.57 | 26.4 ± 11 | 37.4 ± 10.7 | 1.49 ± 0.36 | 41.5 ± 26.4 | 98.8% and 94.4% and 96.6 ± 2.2 % | 99.7% and 99.3% and 99.4% and 99.5 ± 0.1% | 99.7% and 99.3% and 98.9% and 99.3 ± 0.2% | 0.03 pmol/mg and 0.06 pmol/mg and 0.04 pmol/mg |  |  | 
4 | O=C(O)CCC(NC(=O)NC(CCCCNC(=O)[C@@H](Cc1cccc2ccccc12)NC(=O)CCCCCn1cc(CN(CC(=O)O)[C@@H]2CCCC[C@H]2N(CC(=O)O)CC(=O)O)nn1)C(=O)O)C(=O)O (mixture of isomers) [CHDT-PSMA-2] | -3.34 | -3.11 | -3.44 | 99.3% and 98.7% and 99.1 ± 0.2% | 98.9% and 98.8% and 97.6% and 98.4 ± 0.4% | 48.1 nM and 71.2 nM and 40.5 nM and 34.5 nM and 49 nM | 14.4 ± 4.8 | 1.33 ± 0.10 | 12.9 ± 4 | 15.7 ± 0.8 | 1.07 ± 0.13 | 15.8 ± 4.4 | 97.7% and 97.4% and 97.0% and 97.6 ± 0.1% | 99.6% and 98.3% and 98.6% and 98.8 ± 0.4% | 99.9% and 98.5% and 97.6% and 98.7 ± 0.7% | 0.20 pmol/mg and 0.10 pmol/mg and 0.15 pmol/mg | 0.25 pmol/mg and 0.17 pmol/mg and 0.21 pmol/mg | 0.15 pmol/mg and 0.25 pmol/mg and 0.20 pmol/mg | 
